In patent publication US20230365546A1, “5-SUBSTITUTED INDOLE 3-AMIDE DERIVATIVES, PREPARATION METHOD AND USE THEREOF” (ORIGIANT PHARMACEUTICAL CO., LTD, priority 2020, published 2023):

Assays:
IGF-1R(h) = IGF-1R(h) (Homo sapiens (Human), UniProt P08069); assay: Kinase Profiler 10 μM panel
Experimental: (§1) In vitro kinase assays were conducted using Kinase Profiler services provided by Eurofins. The experimental method was as follows: the small molecule compound to be tested (0.001-10 μM), the protein kinase to be tested were incubated with a buffer containing substrate, 10 mM magnesium acetate, and [γ-^33P-ATP], the reaction was started by adding Mg\TPmix, after incubation for a period of time at room temperature, a 3% phosphate solution was added to the buffer to stop the reaction. Subsequently, 10 μL of the reaction mixture was quantitatively pipetted onto P30 filter paper, which was washed three times with 75 mM phosphate solution and then once with methanol. The P30 filter paper was air-dried and scintillation fluid was added for scintillation counting.

CaMKK2(h) = CaMKK2(h) (Homo sapiens (Human), UniProt Q96RR4); assay: Kinase Profiler 10 μM panel
Experimental: as §1

TAO3(h) = TAO3(h) (Homo sapiens (Human), UniProt Q9H2K8); assay: Kinase Profiler 10 μM panel
RIPK1 = RIPK1 (Homo sapiens (Human), UniProt Q13546); assay: In vitro kinase assay (Eurofins Kinase Profiler), IC50; assay type: biochemical; settings: 0.001-10 μM, read-out: RIPK 1 (IC50)
CDK18/cyclinY(h) = CDK18/cyclinY(h) (Homo sapiens (Human), UniProt Q07002); assay: Kinase Profiler 10 μM panel
Experimental: as §1

[1] = molecular target: PI3 Kinase (p110a/p85a)(m) (Mus musculus (Mouse), UniProt P42337); assay: Kinase Profiler 10 μM panel
Experimental: as §1

Wee1(h) = Wee1(h) (Homo sapiens (Human), UniProt P30291); assay: Kinase Profiler 10 μM panel
Experimental: as §1

PrKX(h) = PrKX(h) (Homo sapiens (Human), UniProt P51817); assay: Kinase Profiler 10 μM panel
Experimental: as §1

PDHK2(h) = PDHK2(h) (Homo sapiens (Human), UniProt Q15119); assay: Kinase Profiler 10 μM panel
Experimental: as §1

[2] = molecular target: PI3 Kinase (p110a/p65a)(m) (Mus musculus (Mouse), UniProt P42337); assay: Kinase Profiler 10 μM panel
Experimental: as §1

PRKG2(h) = PRKG2(h) (Homo sapiens (Human), UniProt Q13237); assay: Kinase Profiler 10 μM panel
Experimental: as §1

MEK1(h) = MEK1(h) (Homo sapiens (Human), UniProt Q02750); assay: Kinase Profiler 10 μM panel
Experimental: as §1

ZAP-70(h) = ZAP-70(h) (Homo sapiens (Human), UniProt P43403); assay: Kinase Profiler 10 μM panel
Experimental: as §1

Met(h) = Met(h) (Homo sapiens (Human), UniProt P08581); assay: Kinase Profiler 10 μM panel
Experimental: as §1

NLK(h) = NLK(h) (Homo sapiens (Human), UniProt Q9UBE8); assay: Kinase Profiler 10 μM panel
Experimental: as §1

MAK(h) = MAK(h) (Homo sapiens (Human), UniProt P20794); assay: Kinase Profiler 10 μM panel
Experimental: as §1

Pyk2(h) = Pyk2(h) (Homo sapiens (Human), UniProt Q14289); assay: Kinase Profiler 10 μM panel
Experimental: as §1

Hck(h) = Hck(h) (Homo sapiens (Human), UniProt P08631); assay: Kinase Profiler 10 μM panel
Experimental: as §1

Aurora-B(h) = Aurora-B(h) (Homo sapiens (Human), UniProt Q96GD4); assay: Kinase Profiler 10 μM panel
Experimental: as §1

PKBβ(h) = PKBβ(h) (Homo sapiens (Human), UniProt P31751); assay: Kinase Profiler 10 μM panel
Experimental: as §1

Src(T341M)(h) = Src(T341M)(h) (Homo sapiens (Human), UniProt P12931, T341M); assay: Kinase Profiler 10 μM panel
Experimental: as §1

CDK13/cyclinK(h) = CDK13/cyclinK(h) (Homo sapiens (Human), UniProt Q14004); assay: Kinase Profiler 10 μM panel; assay type: biochemical
Experimental: as §1

PAR-1Bα(h) = PAR-1Bα(h) (Homo sapiens (Human), UniProt Q7KZI7); assay: Kinase Profiler 10 μM panel
Experimental: as §1

Haspin(h) = Haspin(h) (Homo sapiens (Human), UniProt Q8TF76); assay: Kinase Profiler 10 μM panel
Experimental: as §1

Met(Y1248C)(h) = Met(Y1248C)(h) (Homo sapiens (Human), UniProt P08581, Y1230C); assay: Kinase Profiler 10 μM panel
Experimental: as §1

CDKL3(h) = CDKL3(h) (Homo sapiens (Human), UniProt Q8IVW4); assay: Kinase Profiler 10 μM panel
Experimental: as §1

PKCι(h) = PKCι(h) (Homo sapiens (Human), UniProt P41743); assay: Kinase Profiler 10 μM panel
Experimental: as §1

Mnk2(h) = Mnk2(h) (Homo sapiens (Human), UniProt Q9HBH9); assay: Kinase Profiler 10 μM panel
Experimental: as §1

WNK1(h) = WNK1(h) (Homo sapiens (Human), UniProt Q9H4A3); assay: Kinase Profiler 10 μM panel
Experimental: as §1

ALK2(h) = ALK2(h) (Homo sapiens (Human), UniProt Q04771); assay: Kinase Profiler 10 μM panel
Experimental: as §1

B-Raf(V599E)(h) = B-Raf(V599E)(h) (Homo sapiens (Human), UniProt P15056, V600E); assay: Kinase Profiler 10 μM panel
Experimental: as §1

EphA7(h) = EphA7(h) (Homo sapiens (Human), UniProt Q15375); assay: Kinase Profiler 10 μM panel
Experimental: as §1

Fes(h) = Fes(h) (Homo sapiens (Human), UniProt P07332); assay: Kinase Profiler 10 μM panel
Experimental: as §1

MYO3B(h) = MYO3B(h) (Homo sapiens (Human), UniProt Q8WXR4); assay: Kinase Profiler 10 μM panel
Experimental: as §1

Sequence of IGF-1R(h) (P08069 31-1367): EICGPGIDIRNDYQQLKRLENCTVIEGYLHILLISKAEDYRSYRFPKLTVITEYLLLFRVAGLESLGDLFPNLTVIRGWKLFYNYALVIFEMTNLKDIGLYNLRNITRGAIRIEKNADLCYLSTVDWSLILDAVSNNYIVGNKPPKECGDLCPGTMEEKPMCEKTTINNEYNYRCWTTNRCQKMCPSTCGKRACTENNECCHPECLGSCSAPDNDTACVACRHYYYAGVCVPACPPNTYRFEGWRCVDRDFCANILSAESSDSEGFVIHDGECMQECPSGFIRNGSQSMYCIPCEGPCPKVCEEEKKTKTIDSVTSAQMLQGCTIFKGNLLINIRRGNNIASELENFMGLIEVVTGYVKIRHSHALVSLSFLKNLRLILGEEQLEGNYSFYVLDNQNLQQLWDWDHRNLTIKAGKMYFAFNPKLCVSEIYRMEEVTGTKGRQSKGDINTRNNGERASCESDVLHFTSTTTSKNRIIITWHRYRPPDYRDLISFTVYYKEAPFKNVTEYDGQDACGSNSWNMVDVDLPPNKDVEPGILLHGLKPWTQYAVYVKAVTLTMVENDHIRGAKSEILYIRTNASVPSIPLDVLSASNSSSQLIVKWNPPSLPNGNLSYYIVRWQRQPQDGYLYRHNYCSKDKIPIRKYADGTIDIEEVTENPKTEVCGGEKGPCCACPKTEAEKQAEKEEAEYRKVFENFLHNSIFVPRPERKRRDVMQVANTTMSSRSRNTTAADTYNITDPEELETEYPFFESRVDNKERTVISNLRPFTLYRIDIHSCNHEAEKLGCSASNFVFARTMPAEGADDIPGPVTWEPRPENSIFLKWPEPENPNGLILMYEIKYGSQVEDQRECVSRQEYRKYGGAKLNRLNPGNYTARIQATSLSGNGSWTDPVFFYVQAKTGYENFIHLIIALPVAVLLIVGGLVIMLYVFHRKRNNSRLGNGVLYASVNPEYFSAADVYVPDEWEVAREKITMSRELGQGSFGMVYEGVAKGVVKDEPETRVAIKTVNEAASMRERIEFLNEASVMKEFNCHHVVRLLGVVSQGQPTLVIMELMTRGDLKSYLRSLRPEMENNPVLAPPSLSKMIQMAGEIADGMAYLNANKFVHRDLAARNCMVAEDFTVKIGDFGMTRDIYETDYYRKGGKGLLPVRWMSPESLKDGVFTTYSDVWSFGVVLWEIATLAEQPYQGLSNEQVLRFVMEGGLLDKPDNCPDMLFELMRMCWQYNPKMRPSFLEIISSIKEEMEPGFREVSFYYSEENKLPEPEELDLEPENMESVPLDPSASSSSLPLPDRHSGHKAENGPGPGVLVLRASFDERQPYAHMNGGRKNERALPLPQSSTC
Sequence of PrKX(h) (P51817 whole entry): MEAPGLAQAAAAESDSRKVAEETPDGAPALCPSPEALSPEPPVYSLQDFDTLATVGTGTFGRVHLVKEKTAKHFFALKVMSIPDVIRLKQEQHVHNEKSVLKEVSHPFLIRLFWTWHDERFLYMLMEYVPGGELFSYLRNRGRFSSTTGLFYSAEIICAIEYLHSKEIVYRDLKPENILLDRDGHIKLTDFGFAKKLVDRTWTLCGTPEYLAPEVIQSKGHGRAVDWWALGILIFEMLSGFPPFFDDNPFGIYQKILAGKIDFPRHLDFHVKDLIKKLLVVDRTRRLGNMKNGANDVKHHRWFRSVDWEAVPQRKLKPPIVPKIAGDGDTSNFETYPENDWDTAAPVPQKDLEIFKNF
Sequence of TAO3(h) (Q9H2K8 whole entry): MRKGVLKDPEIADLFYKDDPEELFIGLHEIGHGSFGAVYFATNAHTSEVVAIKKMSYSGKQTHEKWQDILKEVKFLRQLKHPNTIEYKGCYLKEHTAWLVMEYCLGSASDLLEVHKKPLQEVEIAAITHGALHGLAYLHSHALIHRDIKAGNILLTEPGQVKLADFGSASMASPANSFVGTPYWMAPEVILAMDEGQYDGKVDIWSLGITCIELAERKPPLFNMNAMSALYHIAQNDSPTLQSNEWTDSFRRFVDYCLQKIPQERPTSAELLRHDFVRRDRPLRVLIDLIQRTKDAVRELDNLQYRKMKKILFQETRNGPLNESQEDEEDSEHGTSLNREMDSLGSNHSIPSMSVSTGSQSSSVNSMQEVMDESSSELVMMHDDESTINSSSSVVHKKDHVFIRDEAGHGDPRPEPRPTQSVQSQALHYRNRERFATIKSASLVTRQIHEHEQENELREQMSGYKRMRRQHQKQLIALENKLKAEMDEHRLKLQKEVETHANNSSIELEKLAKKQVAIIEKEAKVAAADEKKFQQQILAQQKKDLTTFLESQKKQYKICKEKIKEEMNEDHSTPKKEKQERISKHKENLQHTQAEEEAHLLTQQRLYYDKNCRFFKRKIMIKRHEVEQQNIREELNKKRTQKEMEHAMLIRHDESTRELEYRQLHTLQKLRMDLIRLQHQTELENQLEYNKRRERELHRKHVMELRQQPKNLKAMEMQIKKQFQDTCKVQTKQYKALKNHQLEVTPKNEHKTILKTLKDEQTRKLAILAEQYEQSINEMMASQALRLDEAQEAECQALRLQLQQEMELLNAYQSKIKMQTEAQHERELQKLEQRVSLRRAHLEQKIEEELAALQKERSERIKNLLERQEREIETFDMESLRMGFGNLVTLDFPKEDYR
Sequence of Mnk2(h) (Q9HBH9 whole entry): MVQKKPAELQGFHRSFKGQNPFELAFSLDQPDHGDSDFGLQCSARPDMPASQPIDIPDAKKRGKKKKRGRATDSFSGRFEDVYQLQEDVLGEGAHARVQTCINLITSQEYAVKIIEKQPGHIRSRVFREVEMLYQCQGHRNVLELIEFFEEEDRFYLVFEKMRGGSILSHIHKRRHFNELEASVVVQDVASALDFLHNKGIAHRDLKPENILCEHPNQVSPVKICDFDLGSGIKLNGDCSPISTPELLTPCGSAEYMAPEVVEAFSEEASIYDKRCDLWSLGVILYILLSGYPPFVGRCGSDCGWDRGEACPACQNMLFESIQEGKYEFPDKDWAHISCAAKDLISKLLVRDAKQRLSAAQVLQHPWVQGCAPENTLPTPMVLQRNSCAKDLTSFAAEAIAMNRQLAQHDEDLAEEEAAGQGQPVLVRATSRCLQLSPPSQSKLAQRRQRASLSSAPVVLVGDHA
Sequence of ALK2(h) (Q04771 21-509): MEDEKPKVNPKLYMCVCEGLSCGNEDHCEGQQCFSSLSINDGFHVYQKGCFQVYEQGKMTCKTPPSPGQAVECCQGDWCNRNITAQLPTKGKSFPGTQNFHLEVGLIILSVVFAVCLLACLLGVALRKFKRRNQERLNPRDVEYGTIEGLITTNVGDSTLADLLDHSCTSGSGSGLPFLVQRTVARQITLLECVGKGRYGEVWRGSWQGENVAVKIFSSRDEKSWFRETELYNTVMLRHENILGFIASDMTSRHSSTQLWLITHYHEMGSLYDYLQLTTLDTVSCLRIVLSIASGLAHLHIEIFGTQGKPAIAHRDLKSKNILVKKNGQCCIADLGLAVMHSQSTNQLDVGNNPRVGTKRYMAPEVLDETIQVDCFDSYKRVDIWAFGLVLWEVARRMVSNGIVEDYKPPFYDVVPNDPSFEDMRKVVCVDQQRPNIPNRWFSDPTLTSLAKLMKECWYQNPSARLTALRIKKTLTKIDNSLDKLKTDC
Sequence of Hck(h) (P08631 whole entry): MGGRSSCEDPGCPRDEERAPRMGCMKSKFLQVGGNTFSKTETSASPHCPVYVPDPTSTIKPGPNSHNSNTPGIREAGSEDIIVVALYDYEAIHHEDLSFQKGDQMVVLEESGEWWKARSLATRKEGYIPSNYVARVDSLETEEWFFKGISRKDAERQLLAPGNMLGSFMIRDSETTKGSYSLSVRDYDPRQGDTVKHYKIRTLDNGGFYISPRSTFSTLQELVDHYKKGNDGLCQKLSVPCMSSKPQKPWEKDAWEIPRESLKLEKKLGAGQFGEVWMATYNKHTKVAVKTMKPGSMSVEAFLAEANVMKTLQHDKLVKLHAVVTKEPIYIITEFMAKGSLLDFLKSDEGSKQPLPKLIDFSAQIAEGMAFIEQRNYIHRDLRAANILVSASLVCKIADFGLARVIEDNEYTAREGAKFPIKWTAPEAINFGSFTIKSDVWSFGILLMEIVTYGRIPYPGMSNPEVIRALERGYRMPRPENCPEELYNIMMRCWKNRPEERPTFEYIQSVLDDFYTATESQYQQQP
Sequence of EphA7(h) (Q15375 28-998): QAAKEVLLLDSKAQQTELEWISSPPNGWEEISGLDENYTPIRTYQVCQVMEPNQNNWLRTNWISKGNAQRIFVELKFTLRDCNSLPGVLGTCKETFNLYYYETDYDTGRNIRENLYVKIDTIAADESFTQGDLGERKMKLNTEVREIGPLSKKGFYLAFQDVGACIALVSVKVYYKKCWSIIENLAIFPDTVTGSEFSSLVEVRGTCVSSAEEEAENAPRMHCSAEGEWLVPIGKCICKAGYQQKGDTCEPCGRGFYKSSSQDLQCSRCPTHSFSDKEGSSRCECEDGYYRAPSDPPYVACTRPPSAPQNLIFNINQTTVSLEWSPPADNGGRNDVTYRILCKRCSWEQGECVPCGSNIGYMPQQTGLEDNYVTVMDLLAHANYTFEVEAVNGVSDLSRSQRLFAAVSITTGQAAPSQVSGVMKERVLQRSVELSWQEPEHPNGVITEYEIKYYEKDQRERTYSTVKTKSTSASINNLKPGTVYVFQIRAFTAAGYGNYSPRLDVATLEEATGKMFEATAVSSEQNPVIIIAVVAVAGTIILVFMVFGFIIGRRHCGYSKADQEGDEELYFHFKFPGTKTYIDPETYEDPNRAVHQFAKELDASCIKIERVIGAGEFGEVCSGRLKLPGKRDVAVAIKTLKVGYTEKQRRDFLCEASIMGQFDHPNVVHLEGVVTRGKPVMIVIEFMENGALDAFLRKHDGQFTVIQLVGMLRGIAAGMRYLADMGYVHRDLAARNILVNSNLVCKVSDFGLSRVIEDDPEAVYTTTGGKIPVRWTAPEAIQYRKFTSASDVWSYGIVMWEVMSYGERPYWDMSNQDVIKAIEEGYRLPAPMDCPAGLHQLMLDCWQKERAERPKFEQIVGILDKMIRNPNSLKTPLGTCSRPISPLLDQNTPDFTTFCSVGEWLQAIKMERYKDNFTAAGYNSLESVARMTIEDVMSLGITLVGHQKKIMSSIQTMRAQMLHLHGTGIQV

C[C@H](NC(=O)c1c[nH]c2ccc(-c3ccc4nc(NC(=O)C5CC5)sc4c3)cc12)c1cccc(F)c1 [Compound 34, (S)-5-(2-(cyclopropanecarboxamido)benzo[d]thiazol-6-yl)-N-(1-(3-fluorophenyl)ethyl)-1H-indole-3-carboxamide]
Inhibition ratio (IGF-1R(h)): 28% | Inhibition ratio (CaMKK2(h)): 34% | Inhibition ratio (TAO3(h)): 62% | IC50 (RIPK1): 0.01 to 0.1 µM | Inhibition ratio (CDK18/cyclinY(h)): 7% | Inhibition ratio [1]: 43% | Inhibition ratio (Wee1(h)): −1% | Inhibition ratio (PrKX(h)): 6% | Inhibition ratio (PDHK2(h)): 3% | Inhibition ratio [2]: 30% | Inhibition ratio (PRKG2(h)): 3% | Inhibition ratio (MEK1(h)): 12% | Inhibition ratio (ZAP-70(h)): 8% | Inhibition ratio (Met(h)): 95% | Inhibition ratio (NLK(h)): 25% | Inhibition ratio (MAK(h)): 2% | Inhibition ratio (Pyk2(h)): 45% | Inhibition ratio (Hck(h)): 37% | Inhibition ratio (Aurora-B(h)): 21% | Inhibition ratio (PKBβ(h)): 12% | Inhibition ratio (Src(T341M)(h)): 36% | Inhibition ratio (CDK13/cyclinK(h)): 19% | Inhibition ratio (PAR-1Bα(h)): 2% | Inhibition ratio (Haspin(h)): 39% | Inhibition ratio (Met(Y1248C)(h)): 99% | Inhibition ratio (CDKL3(h)): 51% | Inhibition ratio (PKCι(h)): −4% | Inhibition ratio (Mnk2(h)): 38% | Inhibition ratio (WNK1(h)): 10% | Inhibition ratio (ALK2(h)): 64% | Inhibition ratio (B-Raf(V599E)(h)): 14% | Inhibition ratio (EphA7(h)): 96% | Inhibition ratio (Fes(h)): 26% | Inhibition ratio (MYO3B(h)): 16%

C[C@H](NC(=O)c1cn(C)c2ccc(-c3ccn4nc(NC(=O)C5CC5)nc4c3)cc12)c1cccc(F)c1 [Compound 94, (S)-5-(2-(cyclopropanecarboxamido)-[1,2,4]triazolo[1,5-a]pyridin-7-yl)-N-(1-(3-fluorophenyl)ethyl)-1-methyl-1H-indole-3-carboxamide]
Inhibition ratio/% (IGF-1R(h)): −4% | Inhibition ratio/% (CaMKK2(h)): 63% | Inhibition ratio/% (TAO3(h)): 6% | IC50 (RIPK1): 0.001 to 0.01 µM | Inhibition ratio/% (CDK18/cyclinY(h)): 74% | Inhibition ratio/% [1]: −16% | Inhibition ratio/% (Wee1(h)): 1% | Inhibition ratio/% (PrKX(h)): −10% | Inhibition ratio/% (PDHK2(h)): 32% | Inhibition ratio/% [2]: 10% | Inhibition ratio/% (PRKG2(h)): −9% | Inhibition ratio/% (MEK1(h)): 43% | Inhibition ratio/% (ZAP-70(h)): 1% | Inhibition ratio/% (Met(h)): −29% | Inhibition ratio/% (NLK(h)): 16% | Inhibition ratio/% (MAK(h)): 45% | Inhibition ratio/% (Pyk2(h)): −5% | Inhibition ratio/% (Hck(h)): −8% | Inhibition ratio/% (Aurora-B(h)): 25% | Inhibition ratio/% (PKBβ(h)): −8% | Inhibition ratio/% (Src(T341M)(h)): −6% | Inhibition ratio/% (CDK13/cyclinK(h)): 66% | Inhibition ratio/% (PAR-1Bα(h)): 33% | Inhibition ratio/% (Haspin(h)): 48% | Inhibition ratio/% (Met(Y1248C)(h)): 11% | Inhibition ratio/% (CDKL3(h)): −5% | Inhibition ratio/% (PKCι(h)): 54% | Inhibition ratio/% (Mnk2(h)): 51% | Inhibition ratio/% (WNK1(h)): 45% | Inhibition ratio/% (ALK2(h)): −17% | Inhibition ratio/% (B-Raf(V599E)(h)): −10% | Inhibition ratio/% (EphA7(h)): 20% | Inhibition ratio/% (Fes(h)): 54% | Inhibition ratio/% (MYO3B(h)): −18%
